Literature values, collected in patent US7611733B2, “Nanoparticle formulations of platinum compounds” (priority 2004, dated 2009).
Structures can show the parent of a compound that is named as a salt.

System: variety of tumor cell lines

[NH2][Pt+]([NH2])([Cl])[NH]CCCCCC[NH2+]CC[NH2+]CCCCCC[NH][Pt+]([NH2])([NH2])[Cl] [Formula II, bis{trans(diammine)(chloro)platinum(II)}μ(1,16-diamino-7,10-diazahexadecane-N1,N16) dinitrate salt. 2HNO3]
antitumor activity: outstanding antitumor activity
